Results from ChEMBL document CHEMBL1130638, “Hepatoprotective, superoxide scavenging, and antioxidative activities of aromatic constituents from the bark of Betula platyphylla var. japonica” (1998).

Legend:
Type in all cases: functional
[1] = organism: Rattus norvegicus; assay: Compound was tested for hepatoprotective activity against D-GalN-induced cytotoxicity in primary cultured rat hepatocytes at 100 uM dose; conditions: Hepatocyte
[2] = organism: Rattus norvegicus; assay: Compound was tested for O2- scavenging activity using NBT method at a concentration of 20 ug/mL.
[3] = organism: Rattus norvegicus; assay: Compound was tested for antioxidative activity using TBA method at a concentration of 200 ug/mL.
[4] = organism: Rattus norvegicus; assay: Compound was tested for hepatoprotective activity against D-GalN-induced cytotoxicity in primary cultured rat hepatocytes at 30 uM dose; conditions: Hepatocyte
[5] = organism: Rattus norvegicus; assay: Compound was tested for hepatoprotective activity against D-GalN-induced cytotoxicity in primary cultured rat hepatocytes at 3 uM dose; conditions: Hepatocyte
[6] = organism: Rattus norvegicus; assay: Compound was tested for hepatoprotective activity against D-GalN-induced cytotoxicity in primary cultured rat hepatocytes at 10 uM dose; conditions: Hepatocyte
[7] = organism: Rattus norvegicus; assay: Compound was tested for antioxidative activity using TBA method at a concentration of 200 ug/ml.
[8] = organism: Rattus norvegicus; assay: Compound was tested for O2- scavenging activity using NBT method at a concentration of 20 ug/ml.

SMILES	inhibition at 100 µM [1]	inhibition [2]	Inhibition [3]	inhibition at 30 µM [4]	inhibition at 3 µM [5]	inhibition at 10 µM [6]	Inhibition [7]	inhibition [8]
COc1cc([C@H]2c3c(cc(OC)c(O)c3OC)C[C@@H](CO)[C@@H]2CO[C@H]2O[C@@H](CO)[C@@H](O)[C@H](O)[C@@H]2O)cc(OC)c1O	26.9%	67.3%	96.8%	24.1%	22.3%	24.8%	–	–
Cc1c(C)c2c(c(C)c1O)CC[C@@](C)(CCC[C@H](C)CCC[C@H](C)CCCC(C)C)O2 [ALPHA-TOCOPHEROL]	–	–	56.7%	–	–	–	–	–
Cc1cc(C(C)(C)C)c(O)c(C(C)(C)C)c1 [BUTYLATED HYDROXYTOLUENE]	–	–	97%	–	–	–	–	–
OC[C@H]1O[C@@H](O[C@@H](CCc2ccc(O)cc2)C[C@@H](O)CCc2ccc(O)cc2)[C@H](O)[C@H](O)[C@H]1O	37.4%	–	–	21.7%	9.9%	7.4%	61.8%	1.8%
Oc1ccc([C@H]2Oc3cc(OC4OCC(O)C(O)C4O)cc(O)c3C[C@@H]2O)cc1O (stereo partly specified)	9.4%	92.9%	50.1%	8.5%	4.8%	8.8%	–	–
OC[C@@]1(O)CO[C@@H](OC[C@H]2O[C@@H](O[C@H](CCCCc3ccc(O)cc3)CCc3ccc(O)cc3)[C@H](O)[C@H](O)[C@H]2O)[C@@H]1O	55.3%	–	–	43.9%	28.3%	38.4%	–	–
C[C@@H](CCc1ccc(O)cc1)O[C@@H]1O[C@H](CO[C@@H]2O[C@@H](CO)[C@H](O)[C@H]2O)[C@@H](O)[C@H](O)[C@H]1O	5.4%	4%	–	9.6%	10.1%	3.6%	–	–
O=C1c2c(O)cc(O)cc2O[C@H](c2ccc(O)c(O)c2)[C@H]1O [(+)-TAXIFOLIN]	–	93.8%	37%	–	–	–	–	–
C[C@@H](CCc1ccc(O)cc1)O[C@@H]1O[C@H](CO[C@@H]2OC[C@](O)(CO)[C@H]2O)[C@H](O)[C@@H](O)[C@H]1O	-4.5%	10.8%	21.8%	0.7%	3.6%	1.7%	–	–
OC[C@H]1O[C@@H](O[C@@H](CCc2ccc(O)cc2)C[C@H](O)CCc2ccc(O)cc2)[C@H](O)[C@H](O)[C@H]1O	74.7%	–	–	27.3%	16.2%	14.1%	56.3%	1%
C[C@H](CCc1ccc(O)cc1)O[C@@H]1O[C@H](CO[C@@H]2O[C@H](CO)[C@@H](O)[C@@H]2O)[C@H](O)[C@@H](O)[C@H]1O	6.8%	5.1%	98.2%	7.5%	3.4%	6.2%	–	–
COc1cc(C(C)(C)C)c(O)c(C(C)(C)C)c1	–	–	88%	–	–	–	–	–
COc1cc([C@@H]2c3c(cc(OC)c(O)c3OC)C[C@H](CO)[C@H]2CO[C@H]2O[C@@H](CO)[C@@H](O)[C@H](O)[C@@H]2O)cc(OC)c1O	28.9%	58.8%	87.2%	10.5%	8.3%	7.6%	–	–
C[C@H](CCc1ccc(O)cc1)O[C@@H]1O[C@H](CO)[C@@H](O)[C@H](O)[C@H]1O	-0.8%	–	–	4.9%	4.7%	10.1%	–	–
C[C@H](CCc1ccc(O)cc1)O[C@@H]1O[C@H](CO[C@@H]2OC[C@](O)(CO)[C@H]2O)[C@H](O)[C@@H](O)[C@H]1O	-2.3%	1.8%	93.5%	2.1%	1.4%	-1.6%	–	–
